The values that follow come from US20230091047A1 (priority 2019, published 2023).

Like-named read-outs stand apart in the source and are kept apart here.

For orientation: EC50 means the concentration that produces a half-maximal response. A word on the CC50: it is the concentration giving 50% cytotoxicity.

The test system of data set [1] is HBV (HepG2.117 cell line, inducibly HBV producing). The data set is described as follows: Anti-HBV activity: intracellular HBV DNA by real-time PCR in HepG2.117 cells after 3 days of treatment. It is filed as cell-based, hepatitis B virus. In short, it runs like this:
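Readout is intracellular HBV DNA, measured by real-time PCR with HBV-specific primers and probe after 3 days of exposure to serial compound dilutions. Cells are the stable HepG2.117 line, where HBV replication is induced in the absence of doxycycline.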
On the technique in general: In qPCR the cycle at which signal appears reflects the starting amount.

A further data set in a line: in vitro. It is filed as cell-based. As to conditions: human, HepG2 or HepG2.117 cells, mean value. The essentials:
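Luminescent ATP quantitation served as the viability endpoint following a 3- or 4-day incubation with test compounds.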

Setting [2] is: Hepatitis B virus, HepG2.117, 72 h, HepG2.117 cells, intracellular HBV DNA by real-time PCR, 3 days of treatment, mean value; read-out: EC50 (μM, mean value).
[3] abbreviates: ATPlite, 3-days incubation (not marked with *).
The mark [4] stands for this setting: Hepatitis B virus, HepG2.117, 72 h, HepG2.117 cells, 3 days of treatment, intracellular HBV DNA by real-time PCR; mean value; read-out: EC50 (μM, mean value).
[5] abbreviates: 3-days incubation (unmarked values), ATPlite.

Consider `CNC(=O)c1ccc(-n2c(N[C@@H](C)c3ccc(C#N)cc3)nc3c(c2=O)C[C@@H](C)N(C(=O)c2ccc(Cl)c(Cl)c2)C3)cc1` (single isomer, unassigned) [Compound C441b], for which the EC50 in data set [1] (setting [2]) turned out to be 2.75 µM. Further, the CC50 at 3 days in “in vitro” (setting [3]) is over 50 µM.
Turning to `CNC(=O)c1ccc(-n2c(NC(C)C)nc3c(c2=O)C[C@@H](C)N(C(=O)c2cc(Cl)c(Cl)cn2)C3)cc1` [Compound C674], the EC50 in data set [1] (setting [2]) was found to be 2.04 µM. In “in vitro” (setting [3]), the CC50 at 3 days is over 50 µM.
Take `CNC(=O)c1ccc(-n2c(NC(C)C)nc3c(c2=O)C[C@@H](C)N(C(=O)c2ccc(Cl)c(Cl)c2)C3)cc1F` [Compound C274, 4-[(6R)-7-(3,4-dichlorobenzoyl)-6-methyl-4-oxo-2-[(propan-2-yl)amino]-5,6,7,8-tetrahydropyrido[3,4-d]pyrimidin-3(4H)-yl]-2-fluoro-N-methylbenzamide]: the EC50 in data set [1] (setting [4]) stood at 0.09 µM. This compound displayed a CC50 at 3 days in “in vitro” (setting [5]) of over 50 µM.
In the case of `CNC(=O)c1ccc(-n2c(NC(C)(C)C3CC3)nc3c(c2=O)C[C@@H](C)N(C(=O)c2ccc(Cl)c(Cl)c2)C3)cc1` [Compound C396], the EC50 in data set [1] (setting [2]) stood at 0.08 µM. Also, half-maximal cytotoxicity in “in vitro” (setting [3]) (CC50 at 3 days) was put at 39.5 µM.
On to `CNC(=O)c1cnc(-n2c(NC(C)C)nc3c(c2=O)C[C@@H](C)N(C(=O)c2ccc(Cl)c(C(F)(F)F)c2)C3)cn1` [Compound C695], for which, in data set [1] (setting [4]), the EC50 came out at 0.04 µM. The CC50 at 3 days in “in vitro” (3-days incubation (unmarked values), ATPlite viability) is over 50 µM.
Consider `CNC(=O)c1ccc(-n2c(N[C@@H]3C[C@H]3c3ccc(OC)cc3)nc3c(c2=O)C[C@@H](C)N(C(=O)c2ccc(Cl)c(Cl)c2)C3)cc1` (single isomer, unassigned) [Compound C452a], for which the EC50 in data set [1] (setting [2]) worked out at 1.44 µM. In “in vitro” (setting [3]), this compound displayed a CC50 at 3 days of over 25 µM.
As for `Cc1noc2cc(-n3c(NC(C)C)nc4c(c3=O)C[C@@H](C)N(C(=O)c3ccc(Cl)c(Cl)c3)C4)ccc12` [Compound C395], the EC50 in data set [1] (setting [2]) is 0.15 µM. For the same compound, in “in vitro” (setting [3]), the CC50 at 3 days was over 50 µM.
With `CC(=O)c1ccc(-n2c(NC(C)C)nc3c(c2=O)CCN(C(=O)c2ccc(Cl)c(Cl)c2)C3)cc1` [Compound C127, 3-(4-acetylphenyl)-7-(3,4-dichlorobenzoyl)-2-[(propan-2-yl)amino]-5,6,7,8-tetrahydropyrido[3,4-d]pyrimidin-4(3H)-one], the EC50 in data set [1] (setting [4]) was 1.28 µM. The CC50 at 3 days in the data set “in vitro” (setting [5]) is over 50 µM.
With `CC(C)Nc1nc2c(c(=O)n1-c1ccc(-c3ccnnc3)cc1)CCN(C(=O)c1ccc(Cl)c(Cl)c1)C2` [Compound C177, 7-(3,4-dichlorobenzoyl)-2-[(propan-2-yl)amino]-3-[4-(pyridazin-4-yl)phenyl]-5,6,7,8-tetrahydropyrido[3,4-d]pyrimidin-4(3H)-one], the EC50 in data set [1] (setting [4]) worked out at 0.26 µM. The compound further had a CC50 at 3 days in “in vitro” (setting [5]) of 18.2 µM.
In the case of `CC(C)Nc1nc2c(c(=O)n1-c1ccc(S(C)(=O)=O)cc1)C[C@H](C)N(C(=O)c1ccc(Cl)c(Cl)c1)C2` [Compound C100B, (6S)-7-(3,4-dichlorobenzoyl)-3-[4-(methanesulfonyl)phenyl]-6-methyl-2-[(propan-2-yl)amino]-5,6,7,8-tetrahydropyrido[3,4-d]pyrimidin-4(3H)-one], the EC50 in data set [1] (setting [4]) was 10.1 µM. In the data set “in vitro” (setting [5]), this compound yielded a CC50 at 3 days of over 50 µM.
For `CNC(=O)c1ccc(-n2c(N3CC[C@H]3C)nc3c(c2=O)C[C@@H](C)N(C(=O)c2ccc(Cl)c(Cl)c2)C3)cc1` (single isomer, unassigned) [Compound C311, 4-[(6R)-7-(3,4-dichlorobenzoyl)-6-methyl-2-[(2*R)-2-methylazetidin-1-yl]-4-oxo-5,6,7,8-tetrahydropyrido[3,4-d]pyrimidin-3(4H)-yl]-N-methylbenzamide], the EC50 in data set [1] (setting [4]) is 0.09 µM. The same compound came in with a CC50 at 3 days in the data set “in vitro” (setting [5]) of over 50 µM.
For the compound `CNC(=O)c1ccc(-n2c(N[C@H](C)c3ccccc3OC(F)F)nc3c(c2=O)C[C@@H](C)N(C(=O)c2ccc(Cl)c(Cl)c2)C3)cc1` (single isomer, unassigned) [Compound C438a], the EC50 in data set [1] (setting [2]) came out at 0.73 µM. The compound further showed a CC50 at 3 days in “in vitro” (setting [3]) of 29.2 µM.
In the case of `CNC(=O)c1cc(-n2c(N[C@@H](C)c3ccc(F)cc3)nc3c(c2=O)C[C@@H](C)N(C(=O)c2ccc(Cl)c(C(F)(F)F)c2)C3)n(C)n1` [Compound C658], the EC50 in data set [1] (setting [2]) is 0.07 µM. Further, the midpoint of cytotoxicity in the data set “in vitro” (setting [3]), the CC50 at 3 days, lay at 32.2 µM.
As for `CNC(=O)c1ccc(-n2c(NCc3ccc4cc[nH]c4c3)nc3c(c2=O)C[C@@H](C)N(C(=O)c2ccc(Cl)c(Cl)c2)C3)cc1` [Compound C325, 4-[(6R)-7-(3,4-dichlorobenzoyl)-2-{[(1H-indol-6-yl)methyl]amino}-6-methyl-4-oxo-5,6,7,8-tetrahydropyrido[3,4-d]pyrimidin-3(4H)-yl]-N-methylbenzamide], the EC50 in data set [1] (setting [4]) came out at 0.42 µM. The compound further displayed a CC50 at 3 days in the data set “in vitro” (setting [5]) of 22.8 µM.
For the compound `CC(C)Nc1nc2c(c(=O)n1-c1ccc(NC3COC3)cc1)C[C@@H](C)N(C(=O)c1ccc(Cl)c(Cl)c1)C2` [Compound C190, (6R)-7-(3,4-dichlorobenzoyl)-6-methyl-3-{4-[(oxetan-3-yl)amino]phenyl}-2-[(propan-2-yl)amino]-5,6,7,8-tetrahydropyrido[3,4-d]pyrimidin-4(3H)-one], the EC50 in data set [1] (setting [4]) stood at 0.18 µM. In the data set “in vitro” (setting [5]), this compound showed a CC50 at 3 days of over 50 µM.
As for `CNC(=O)c1cc(Cl)c(-n2c(NC(C)C)nc3c(c2=O)C[C@@H](C)N(C(=O)c2ccc(Cl)c(C(F)(F)F)c2)C3)c(Cl)c1` [Compound C688], in data set [1] (setting [2]), the 50% effective concentration (EC50) was found to be 0.04 µM. In “in vitro” (setting [3]), this compound registered a CC50 at 3 days of 29.3 µM.
With `CNC(=O)c1ccc(-n2c(NC(C)C)nc3c(c2=O)C[C@@H](C)N(C(=O)c2ccc(Cl)c(C(F)(F)F)c2)C3)c(C2CC2)c1` [Compound C661], the EC50 in data set [1] (setting [2]) amounted to 0.07 µM. The CC50 at 3 days in the data set “in vitro” (setting [3]) was found to be 25 µM.
The like results for `CNC(=O)c1ccc(-n2c(NC(C)C)nc3c(c2=O)C[C@@H](C)N(C(=O)c2ccc(F)c(C)c2)C3)cc1` [Compound C499] were, in that order, 1.53 µM and over 50 µM.
With `CNC(=O)c1ccc(-n2c(NCc3cc(C(F)F)no3)nc3c(c2=O)C[C@@H](C)N(C(=O)c2ccc(Cl)c(Cl)c2)C3)cc1` [Compound C554], the EC50 in data set [1] (setting [2]) was found to be 1.77 µM. Further, the CC50 at 3 days in the data set “in vitro” (setting [3]) is over 50 µM.
On to `COc1ccc(CNc2nc3c(c(=O)[nH]2)CCN(C(=O)c2cc4ccc(Cl)cc4[nH]2)C3)cc1` [Compound C79, 7-(6-chloro-1H-indole-2-carbonyl)-2-{[(4-methoxyphenyl)methyl]amino}-5,6,7,8-tetrahydropyrido[3,4-d]pyrimidin-4(3H)-one], for which, in data set [1] (setting [4]), the EC50 came out at 2.32 µM. The same compound gave a CC50 at 3 days in the data set “in vitro” (setting [5]) of 37.5 µM.
Regarding `CNC(=O)c1ccc(-n2c(NCc3nc(C(F)(F)F)n[nH]3)nc3c(c2=O)C[C@@H](C)N(C(=O)c2ccc(Cl)c(Cl)c2)C3)cc1` [Compound C598], the EC50 in data set [1] (setting [2]) was over 25 µM. Besides, the CC50 at 3 days in the data set “in vitro” (setting [3]) is over 50 µM.
As for `CNC(=O)c1ccc(-n2c(NC(C)C)nc3c(c2=O)C[C@@H](C)N(C(=O)c2ccc(C)c(Br)c2)C3)cc1` [Compound C586], the EC50 in data set [1] (setting [2]) was 0.21 µM. In the data set “in vitro” (setting [3]), this compound gave a CC50 at 3 days of over 50 µM.
`CNC(=O)c1ccc(-n2c(N[C@@H](C)c3ccccc3OC(F)F)nc3c(c2=O)C[C@@H](C)N(C(=O)c2ccc(Cl)c(Cl)c2)C3)cc1` (single isomer, unassigned) [Compound C438b]: the EC50 in data set [1] (setting [2]) was 0.15 µM. Also, half-maximal cytotoxicity in “in vitro” (setting [3]) (CC50 at 3 days) was put at 29.9 µM.
In the case of `COc1ccc(CNc2nc3c(c(=O)n2-c2cccc(OC)c2)CCN(C(=O)c2ccc(Cl)c(Cl)c2)C3)cc1` [Compound C8, 7-(3,4-dichlorobenzoyl)-3-(3-methoxyphenyl)-2-{[(4-methoxyphenyl)methyl]amino}-5,6,7,8-tetrahydropyrido[3,4-d]pyrimidin-4(3H)-one], the EC50 in data set [1] (setting [4]) turned out to be 1 µM. In the data set “in vitro” (setting [5]), the CC50 at 3 days was over 50 µM.
On to `CNC(=O)c1ccc(-n2c(NC(C)C)nc3c(c2=O)C[C@@H](C)N(C(=O)c2ccc(Cl)cc2Cl)C3)cc1` [Compound C582], for which the EC50 in data set [1] (setting [2]) is 2.34 µM. For the same compound, the CC50 at 3 days in the data set “in vitro” (setting [3]) was over 50 µM.
`CNC(=O)c1ccc(-n2c(NCCCc3nc(=O)[nH][nH]3)nc3c(c2=O)C[C@@H](C)N(C(=O)c2ccc(Cl)c(Cl)c2)C3)cc1` [Compound C599]: in data set [1] (setting [2]), the EC50 was over 25 µM. The compound further showed a CC50 at 3 days in “in vitro” (setting [3]) of over 50 µM.
Consider `CNC(=O)c1ccc(-n2c(NC(C)C)nc3c(c2=O)C[C@@H](C)N(C(=O)c2cc4ccncc4s2)C3)cc1` [Compound C503], for which the EC50 in data set [1] (setting [2]) came out at 6.32 µM. The compound also yielded a CC50 at 3 days in the data set “in vitro” (setting [3]) of over 50 µM.
Take `COc1ccc(CNc2nc3c(c(=O)[nH]2)CCN(C(=O)c2ccc(Cl)c(Cl)c2)C3)cc1` [Compound C34, 7-(3,4-dichlorobenzoyl)-2-{[(4-methoxyphenyl)methyl]amino}-5,6,7,8-tetrahydropyrido[3,4-d]pyrimidin-4(3H)-one]: the EC50 in data set [1] (setting [4]) is 4.03 µM. The compound also registered a CC50 at 3 days in “in vitro” (setting [5]) of 26.6 µM.
On to `Cc1cc(-c2ccc(-n3c(NC(C)C)nc4c(c3=O)C[C@@H](C)N(C(=O)c3ccc(Cl)c(Cl)c3)C4)cc2)n[nH]1` [Compound C243, (6R)-7-(3,4-dichlorobenzoyl)-6-methyl-3-[4-(5-methyl-1H-pyrazol-3-yl)phenyl]-2-[(propan-2-yl)amino]-5,6,7,8-tetrahydropyrido[3,4-d]pyrimidin-4(3H)-one], for which the EC50 in data set [1] (setting [4]) was determined as 0.23 µM. This compound also had a CC50 at 3 days in “in vitro” (setting [5]) of 28.7 µM.
For `CC(C)Nc1nc2c(c(=O)n1-c1ccc(-c3ccn4ccnc4c3)cc1)C[C@@H](C)N(C(=O)c1ccc(Cl)c(Cl)c1)C2` [Compound C189, (6R)-7-(3,4-dichlorobenzoyl)-3-[4-(imidazo[1,2-a]pyridin-7-yl)phenyl]-6-methyl-2-[(propan-2-yl)amino]-5,6,7,8-tetrahydropyrido[3,4-d]pyrimidin-4(3H)-one], the EC50 in data set [1] (setting [4]) turned out to be 0.1 µM. Besides, the CC50 at 3 days in the data set “in vitro” (setting [5]) came to 9.8 µM.
